Read-outs that look alike come from different tables or passages of the source.
Legend:
[1] = tested on: IRF-Lucia luciferase reporter (ISRE) in THP1-Dual cells; test: THP1-Dual IRF-Lucia luciferase reporter assay (ISRE activation); format: cell-based, human; details: for EC50: Homo sapiens, THP1-Dual, read-out: THP1 IRF EC50
In short: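 Supernatant luminescence from the ISG54/ISRE-driven Lucia reporter was measured after 24 h exposure to 10 μM compound (LPS 313 ng/mL in control wells).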

[2] = THP1-Dual cytotoxicity (Cell Titer Glo, ATP); format: cell-based, human; details: human, THP1-Dual cells, read-out: Thp1 cytotox CC50
In short: (§1)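 CC50, the concentration killing half the cells, was derived from ATP-dependent CellTiter-Glo luminescence. Cells were THP1-Dual (human) and compound was tested as an 8-point dose-response series, with viability read in the same plate.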

[3] = tested on: NF-κB-SEAP reporter in J774-Dual cells; test: J774-Dual NF-κB-SEAP reporter assay; format: cell-based, mouse; details: for EC50: Mus musculus, read-out: J774 NFkB EC50
Description: (§2) First, optimal assay conditions and assay quality in 384-well format were determined. As mentioned, the mouse macrophage J774 cell line (J774-Dual, InvivoGen) stably transfected with the same inducible reporters described above (e.g., IRF-Lucia luciferase and NF-κB-SEAP) was used. The responsiveness of the J774-Dual cell line was investigated in an array of assay conditions to obtain sensitive and reproducible results for the activation of the IRF and NF-κB reporters. An optimal plating density and conditions for these cells was established for these cells in a 384-well format. Assay work-flow is similar to that discussed above for the THP1-Dual assay without a need for cell differentiation. Thus, cells are seeded directly in growth medium and incubated at 37° C. in a 5% C02 incubator for 24 hours prior to the programmed treatments being added as described herein.
(§3) The primary high throughput screen used the HTS platform of human THP1 monocyte cells containing the IRF-Lucia luciferase and NFκB-SEAP (secreted embryonic alkaline phosphatase) dual reporter (THP1-Dual, Invivogen), enabling the simultaneous study of the IRF and NFκB signaling pathways respectively. As discussed, the Lucia luciferase reporter gene is under the control of an ISG54 (interferon-stimulated gene) minimal promoter in conjunction with five interferon-stimulated response elements (ISRE). The SEAP gene is driven by an IFNβ minimal promoter fused to five copies of the NFκB consensus transcriptional response element and three copies of the c-Rel binding site. Both IRF-Lucia luciferase and NFκB-SEAP reporter proteins are secreted and readily measurable in the cell culture supernatant when using QUANTI-Luc™ and QUANTI-Blue™ detection reagents, respectively. Identified “hits” were confirmed in a secondary screen with an 8-point dose response curve. Hits were further screened for activity in the mouse using the mouse J774 macrophage-like cell line containing the identical reporter constructs (J774-Dual, Invivogen).
(§4) The OTRADI Small Molecule Library of approximately 246,000 diverse compounds (see below for description) was screened using the THP1-Dual based HTS platform described above. All transfer steps in the screen are fully automated, thus reducing variability. Primary screening included a single data point or dose for each molecule. After data normalization was applied for each assay run, “hit” selection was performed on the plates that pass the quality control (QC) criterion. Hits were defined as samples having values above the activity cutoff determined based on noise level of the assay to reduce false positive rates. In the pilot study discussed above this activity value was >3σ above the ISRE mean with the added criteria of NFκB activation being lower than […] from the mean to identify IRF selective compounds. The ratio of ISRE:NFκB activity was also calculated as a selectivity index for prioritizing hit selection. Primary hits underwent secondary screening to determine the 50% effective concentration (EC50) and 50% cytotoxic concentration (CC50) of these agents using an 8-point dose-response curve in the human THP1-Dual cells. Cytotoxicity was measured in the plate using Cell Titer Glo (Promega). Identified candidate compounds were further screened (orthogonal screen) for cross species activity in the validated mouse J774-Dual assay using an 8-point dose-response format to determine EC50 and CC50 values as well as ISRE:NFκB ratios. A general process flow for the experimental design laid out above is depicted at FIG. 12.

J774-Dual cytotoxicity = format: cell-based, mouse; details: mouse, J774-Dual cells, read-out: J774 cytotox CC50
In short: (§5)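 CC50 derived from 8-point concentration series in mouse J774-Dual reporter cells, with viability read by CellTiter-Glo in the same plate. Run in parallel with EC50 and ISRE:NFκB ratio determination for cross-species confirmation.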

THP1-Dual cells = test: THP1-Dual cytotoxicity (Cell Titer Glo, ATP); format: cell-based, human; details: Human Reporter Cell Line; read-out: Thp1 cytotox CC50
In short: as §1

J774-Dual cells = test: J774-Dual cytotoxicity; format: cell-based, mouse; details: Mouse Reporter Cell Line; read-out: J774 cytotox CC50
In short: as §5

[4] = tested on: NF-κB-SEAP reporter in THP1-Dual cells; test: THP1-Dual NF-κB-SEAP reporter counterscreen; format: cell-based, human; details: Homo sapiens, THP1-Dual, read-out: THP1 NFkB EC50
Description: THP1 Dual (InvivoGen) cell suspensions were cultured in RPMI 1640 (Hyclone, Logan, Utah) supplemented with 10% fetal bovine serum (Hyclone), 100 U/mL Normocin (Invivogen), and 50 U/mL PenStrep (Gibco, Dublin, Ireland) between a density of 7·10^5-2·10^6 cells/mL. Every other passage, media was supplemented with 5 U/mL Blasticidin and 100 U/mL Zeocin to maintain the expression constructs. White, flat-bottom 384-well plates (Greiner, Kremsmunster, Austria, 781080) were seeded with 2.5·10^4 cells/well in a total of 50 μL media containing 5 ng/mL phorbolmyristic acid (PMA) using a Matrix WellMate (Thermo Scientific) dispenser. After 48 hours of incubation at 37° C., media was removed using a BioTek ELx405 CW plate washer set to aspirate and wash each well three times with 65 μL 1×PBS. Plates were reloaded with 50 μL media without PMA and treatments added. Lipopolysaccharide in dimethylsulfoxide (DMSO) was transferred to control wells using a HP D300 microdispenser to a final concentration of 313 ng/mL. Compounds from chemical library plates were copied using a Sciclone (Caliper LifeSciences) mounted with a 384-pin transfer tool to obtain a final concentration of 10 μM. After incubation with treatments for 24 hours, 10 μL of supernatant media from each well was transferred into a white, flat-bottom 384-well plate for luminescence readout and a black-walled, clear flat-bottom 384-well plate for absorbance readout.
Specifically, to enable screening of novel chemical entities (NCEs) in a larger screening effort, a robust high-throughput cell-based assay system for primary hit identification of ISRE activators based on the above-mentioned target validation was desired. Human ISRE activity was verified using a THP-1 monocyte line containing the NF-κB-SEAP and IRF-Lucia luciferase dual reporter (THP1-Dual; Invivogen) that features two reporter genes, SEAP (secreted embryonic alkaline phosphatase) and Lucia luciferase, thereby enabling the simultaneous study of the NF-κB and IRF signalling pathways. The Lucia luciferase reporter is under the control of an ISG54 (interferon-stimulated gene) minimal promoter in conjunction with five IFN-stimulated response elements. The SEAP gene is driven by an IFN-β minimal promoter fused to five copies of the NF-κB consensus transcriptional response element and three copies of the c-Rel binding site. Both reporter proteins are readily measurable in the cell culture supernatant when using QUANTI-LUC™ and QUANTI-Blue SEAP detection reagents.
Using the experimental design and data analysis outlined above, optimized assay conditions were obtained. The responsiveness of the human THP-1 Dual cell line was evaluated in an array of assay conditions to obtain sensitive and reproducible results for the activation of IRF and NF-κB reporters. An optimal plating density and differentiation protocol for these cells was established in a 384-well format. All transfer steps are fully automated using high throughput robotic equipment. Briefly, cells are seeded in differentiation medium using a Matrix WellMate fitted with the WellMate Stacker (Thermo Scientific) and incubated at 37° C. with 5% CO2 for 48 h. Following differentiation, cells are washed using a BioTek ELx405 Select CW plate washer and growth medium added with the Matrix WellMate. Programmed control treatments are added to wells using a D300 digital dispenser fitted with T8+ dispense heads (Hewlett Packard) designed to dispense nanoliter quantities of material. Compounds from library plates are added using a pin tool fitted to a Sciclone ALH 3000 Workstation (Caliper Life Sciences) programmed with Maestro v4.4. After treatment, plates are returned to incubators for 24 hours. To measure reporter expression, supernatant is collected using the Sciclone and dispensed into 2 plates: 1) a white 384-well assay plate for Lucia luminescence measurements and 2) a clear-bottom black 384-well assay plate for SEAP absorbance measurements. […]

[5] = tested on: IRF-Lucia luciferase reporter (ISRE) in J774-Dual cells; test: J774-Dual IRF-Lucia luciferase reporter assay (ISRE activation); format: cell-based, mouse; details: for EC50: Mus musculus, read-out: J774 IRF EC50
Description: as §2, §3, §4

[6] = Human Reporter Cell Line, 8-point dose response
[7] = J774, Mouse Reporter Cell Line, 8-point dose response
[8] = J774, Mouse Reporter Cell Line J774

Row | EC50 ([1]; Human Reporter Cell Line THP1) [µM] | Compound | CC50 ([2]; Human Reporter Cell Line THP1) [µM] | CC50 (J774-Dual cytotoxicity; Mouse Reporter Cell Line J774) [µM] | EC50 ([4]; Human Reporter Cell Line THP1) [µM] | other results
1 | ~0.00225 | Cc1c(C(=O)Nc2ccc3oc(-c4cccnc4)nc3c2)cccc1[N+](=O)[O-] [ND-42] | > 25 | > 25 | ~15.6 | –
2 | 5.39 | COc1ccc(C(=O)Nc2ccc(O)c(-c3nc4ccccc4s3)c2)cc1[N+](=O)[O-] [ND-65] | > 25 | > 25 | 12 | –
3 | 0.401 | COc1ccc(-c2nc3ccccc3s2)cc1NC(=O)c1ccc([N+](=O)[O-])cc1Cl [ND-67] | 8.87 | > 25 | ~12.3 | –
4 | 4.76 | Cc1ccc(C(=O)Nc2cc(-c3nc4ccccc4s3)ccc2C)cc1Cl [ND-70] | 17.4 | > 25 | ~4.33 | –
5 | 8.49 | Cc1cc2nc(-c3ccc(C)c(NC(=O)c4ccc([N+](=O)[O-])cc4)c3)oc2cc1C [ND-71] | > 25 | > 25 | 6.94 | –
6 | ~0.496 | COc1ccc(C(=O)Nc2cc(-c3nc4ccccc4s3)ccc2Cl)cc1[N+](=O)[O-] [ND-89] | > 25 | > 25 | 10.6 | –

Further lines, the molecule ahead of its results:

Row | Compound | EC50 ([1]; Human Reporter Cell Line THP1) [µM] | CC50 ([2]; Human Reporter Cell Line THP1) [µM] | CC50 (J774-Dual cytotoxicity; Mouse Reporter Cell Line J774) [µM] | EC50 ([4]; Human Reporter Cell Line THP1) [µM] | other results
7 | COc1ccc(C(=O)Nc2ccc(N3CCN(C(=O)c4cccs4)CC3)cc2)c2ccccc12 [NA-15] | – | – | – | – | EC50 [1, 6]: 5.89 µM; CC50 ([2]; Human Reporter Cell Line): > 25 µM; EC50 [3, 7]: 1.63 µM; CC50 (J774-Dual cytotoxicity; Mouse Reporter Cell Line): > 25 µM
8 | O=C(Nc1ccc(N2CCN(C(=O)c3ccccc3Cl)CC2)cc1)c1ccc(OCc2ccccc2)cc1 [NA-49] | – | – | – | – | CC50 (THP1-Dual cells): 27.9 µM; CC50 (J774-Dual cells): > 25 µM
9 | O=C(Nc1ccc(N2CCN(C(=O)c3ccccc3Cl)CC2)cc1)c1ccc(OCc2ccccc2)cc1 [NA-50] | – | – | – | – | EC50 [1, 6]: ~2.5 µM; CC50 (THP1-Dual cells): 13.1 µM; CC50 (J774-Dual cytotoxicity; Mouse Reporter Cell Line): > 25 µM
10 | O=C(Nc1ccc(N2CCN(C(=O)c3cccs3)CC2)cc1)c1ccc(OCc2ccccc2)cn1 [NA-60] | – | – | – | – | EC50 [1, 6]: 2.23 µM; EC50 [4, 6]: 2.27 µM; CC50 ([2]; Human Reporter Cell Line): 23 µM; J774 IRF % activation at peak ([5]; Mouse Reporter Cell Line): 33.91%; EC50 [5, 7]: 1.77 µM
11 | CCCCOc1nc(N)c2c(n1)N(Cc1cccc(CN3CCCC3)c1)CC(=O)N2 [NA-63] | – | – | – | – | EC50 [4, 6]: 2.94 µM; EC50 [3, 7]: 2.77 µM; CC50 (J774-Dual cytotoxicity; Mouse Reporter Cell Line): 73.9 µM
12 | COc1ccc(NC(=O)c2cc(NC(=O)c3cccs3)ccc2N2CCOCC2)cc1 [NB-14] | 6.9 | > 25 | > 25 | – | EC50 [3, 8]: 11.3 µM
13 | COc1ccc(C(=O)Nc2cc(-c3nc4ccccc4s3)ccc2C)cc1OC [ND-66] | – | 17.9 | > 25 | ~0.66 | J774 IRF % activation at peak ([5]; Mouse Reporter Cell Line J774, at peak): ~32.86%; EC50 [5, 8]: ~28.6 µM
14 | CCCN(CCC)C(=O)C1=Cc2ccc(-c3ccc(C(=O)N4CCCC4)cc3)cc2N=C(N)C1 [ND-88] | – | > 25 | > 25 | 1.72 | EC50 [3, 8]: 0.72 µM
15 | Cc1ccc(C(=O)Nc2cc(-c3nc4cc(C(C)C)ccc4o3)ccc2C)cc1C [ND-103] | – | – | – | 25 | EC50 [3, 8]: 9.17 µM
16 | COc1cccc2c1C(=O)c1c(O)c3c(c(O)c1C2=O)C[C@@](O)(C(C)=O)C[C@@H]3O[C@H]1C[C@H](N)[C@H](O)[C@H](C)O1 [OTR-0000353-001 (Daunorubicin), Daunorubicin, reference compound] | – | – | – | – | Average ISRE/NFκB (Range) ([1]; human THP1 pilot screen, 10 μM, 3 screens): 0.7 (0.2-1.0); Average ISRE % Activation ([1]; human THP1 pilot screen, 10 μM, 24 hours, percent of LPS activation signal +/− SD, 3 screens): 4.0 +/− 1.8%; Average ISRE/NFκB (Range) ([5]; mouse J774-Dual pilot screen, 3 screens): 0.1 (0.09-0.18); Average ISRE % Activation ([5]; mouse J774-Dual pilot screen, percent of LPS activation signal +/− SD, 3 screens): 5.4 +/− 1.6%; ISRE activation in both THP1-Dual and J774-Dual screens ([5]; pilot screens): cross-species ISRE activity; NF-κB activation in J774 screen ([3]; J774-Dual pilot screen): high NF-κB activity
